Assay results from patent US7534806B2, “Method for treating neuropathic pain and associated syndromes” (Avigen, Inc., priority 2004, dated 2009).
Entries after “also recorded” stand apart in the source; their conditions may differ.

Experiments:
[1] = test system: mechanical allodynia in rat model of taxol-induced neuropathic pain; experiment: von Frey test of mechanical allodynia in rat model of taxol-induced neuropathic pain; type: in vivo
Method: Test Agents: Ibudilast was formulated as described above. Ibudilast was administered at 7.5 mg/kg (2.7 ml/kg of 2.8 mg/ml in 35% PEG/saline i.p. each morning (typically 8 am) and pm (typically 3 pm). Animals: Pathogen-free adult male Sprague-Dawley rats (280-350 g; Harlan Labs) were used in all experiments. Rats were housed in temperature (23+/−3° C.) and light (12:12 light: dark; lights on at 0700 hr) controlled rooms with standard rodent chow and water available ad libitum. Behavioral testing was performed during the light cycle. Taxol Model: Neuropathic pain was induced by administration of 4 i.p. injections on alternate days (Day 0, 2, 4, and 6) of 1 mg/kg taxol (Paclitaxel®, cumulative dose 4 mg/kg). Neuropathic pain onset was maximal around day 19 post taxol administration (Day 0). Ibudilast or vehicle control treatment initiated at either day 19 (treatment paradigm) or day 12 (prevention paradigm). Allodynia results were determined prior to the morning administration of vehicle or ibudilast. Behavioral Measures von Frey Test: The von Frey test was performed within the sciatic or saphenous innervation area of the hindpaws as previously described above for the CCI model. All testing was conducted in the am prior to the morning dose of ibudilast for that day. Multi-day Study for Neuropathic Pain Efficacy: 7.5 mg/kg Ibudilast was administered twice daily for 7 days starting day 20 after the first taxol dose (Day 0). Mechanical allodynia was assessed prior to the first dose of ibudilast each day. Prevention of Taxol-Induced Neuropathy: A second study was performed identical in nature to the multi-day study described above except that ibudilast or vehicle control administrations were initiated on day 12 just as allodynia was becoming clearly evident.

[2] = Rat ibudilast plasma PK and tissue distribution (plasma, muscle, brain, spinal cord); type: in vivo
Method: Test Agents: Ibudilast was prepared in 15% ethanol/saline. Drug stability and concentration were validated by HPLC/MS/MS.
Animals: Pathogen-free adult male Sprague-Dawley rats (280-350 g; Harlan Labs) were used in all experiments. Rats were housed in temperature (23+/−3° C.) and light (12:12 light: dark; lights on at 0700 hr) controlled rooms with standard rodent chow and water available ad libitum. Behavioral testing was performed during the light cycle.
PK Analysis: Rats (n=3/group) were administered 5 mg/kg ibudilast, i.p. and plasma, muscle, brain, and spinal cord were harvested at 5, 15, 60, 180, and 420 min post administration.
(§1) Tissue Concentration Analysis: A solution of ibudilast (Haorui) at 0.5 mg/ml in DMSO was used as the working stock. A solution of ibudilast at 0.5 mg/ml in DMSO was prepared using the powdered ibudilast provided with the study samples and used as the working stock. Calibration standards in plasma were prepared by diluting each 0.5 mg/ml stock 1 in 100 into rat plasma to 5000 ng/ml (5 μl+495 μl), then diluting further, to 2.29 ng/ml, by 3-fold serial dilution with plasma. Standards 3, 5 and 7 were used as low, mid and high QC samples, respectively.
Calibration standards, QC and plasma study samples were prepared for HPLC injection by precipitating 25 μl of plasma with 3× volumes (75 μl) of ice cold acetonitrile containing 50 ng/ml diphenhydramine and 100 ng/ml dextromethorphan as the internal standards. […] Following centrifugation at 6100 g for 30 minutes, 40 μl of each supernatant was diluted with 200 μl of 0.2% formic acid in water and analyzed by the following LC/MS/MS conditions: • HPLC: Shimadzu VP System • Mobile Phase: 0.2% formic acid in water (A) and in methanol (B) • Column: 2×10 mm Peeke Scientific DuraGel G C18 guard cartridge • Injection Volume: 100 μl • Gradient: 5-95% B in 2 minutes after a 0.75 minute wash • Flow Rate: 400 μl/min • Mass Spectrometer: Applied Biosystems/MDS SCIEX API 3000 • Interface: TurboIonSpray (ESI) at 400° C. • Ionization Mode: Positive Ion • Q1/Q3 Ions: 231.2/161.2 for ibudilast Studies and Results

[3] = test system: mechanical allodynia in rat chronic constriction injury (CCI) model; experiment: von Frey test of mechanical allodynia in rat chronic constriction injury (CCI) model of neuropathic pain; type: in vivo
activated microglia = details: dose-dependent; Mizuno et al. 2004; cited from earlier work
[4] = administered systemically; Sugiyama et al. 1993; cited from earlier work
[5] = test system: astrocyte activation (Glial Fibrillary Acidic Protein staining); experiment: GFAP immunohistochemistry of lumbar spinal cord from CCI rats (astrocyte activation); type: in vivo, rat; details: 7.5 mg/kg ip BID for 5 days
Text: Study of Attenuation of Glial Cell Activation in Ibudilast-Treated CCI Rats: At the end of the 5-day study, animals (4/group) from the CCI vehicle control or CCI ibudilast group were euthanized and lumbar spinal cord tissue was isolated and stained for astrocyte activation with an antibody reactive against Glial Fibrillary Acidic Protein (GFAP) as described in […] and J A DeLeo, Brain Research (2002) 956:294-301. FIG. 6 depicts a typical staining profile from CCI vehicle-treated animals. Enlarged (activated) astrocytes, typically observed in subjects with neuropathic pain (CCI rats in this case), are visible in the CCI group.

in vivo = details: rat
Method: Pharmacokinetics. Plasma Ibudilast Concentrations Correlating with Efficacy: Dedicated pharmacokinetic studies in normal rats were performed with ibudilast dosing i.p. or p.o. in order to correlate drug plasma levels with changes in mechanical allodynia (i.e. neuropathic pain efficacy). Following dosing (time t=0), serial bleeding from n=3 rats/time point and 6 time points interspersed between 5 min and 6 hr was obtained, plasma was isolated, and ibudilast concentrations were determined by a HPLC and two-dimensional mass spectrometry (LC/MS/MS) method (described in Example 4) sensitive to ≦1 ng/ml. […] Moreover, pharmacokinetic-pharmacodynamic analyses involving PK parameters including Cmax, area under the curve (AUC), and elimination half-life (t1/2) indicated Cmax is an important parameter in establishing efficacy.
as §1
Calibration standards, QC and plasma study samples were prepared for HPLC injection by precipitating 25 μl of plasma with 3× volumes (75 μl) of ice cold acetonitrile containing 50 ng/ml diphenhydramine and 100 ng/ml dextromethorphan as the internal standards. Tissue study samples were prepared for HPLC injection by adding 1 μl of water per mg of tissue plus 3× volumes (relative to water) of ice cold acetonitrile containing 50 ng/ml diphenhydramine and 100 ng/ml dextromethorphan as the internal standards, then homogenized with an electric homogenizer. Following centrifugation at 6100 g for 30 minutes, 40 μl of each supernatant was diluted with 200 μl of 0.2% formic acid in water and analyzed by the following LC/MS/MS conditions: • HPLC: Shimadzu VP System • Mobile Phase: 0.2% formic acid in water (A) and in methanol (B) • Column: 2×10 mm Peeke Scientific DuraGel G C18 guard cartridge • Injection Volume: 100 μl • Gradient: 5-95% B in 2 minutes after a 0.75 minute wash • Flow Rate: 400 μl/min • Mass Spectrometer: Applied Biosystems/MDS SCIEX API 3000 • Interface: TurboIonSpray (ESI) at 400° C. • Ionization Mode: Positive Ion • Q1/Q3 Ions: 231.2/161.2 for ibudilast Studies and Results

[6] = test system: mechanical allodynia in rat Chung model; experiment: von Frey test of mechanical allodynia in rat Chung model of neuropathic pain; type: in vivo
Method: Test Agents: Haorui and Sigma ibudilast was formulated as described above. Ibudilast was administered at 10 mg/kg twice daily, (3.7 ml/kg of 2.7 mg/ml in 35% PEG/saline) i.p. each morning (typically 8 am) and pm (typically 3 pm). Animals: Pathogen-free adult male Wistar rats (150-200 g; Elevage Janvier) were used in all experiments. Rats were housed in temperature (23+/−3° C.) and light (12:12 light: dark; lights on at 0700 hr) controlled rooms with standard rodent chow and water available ad libitum. Behavioral testing was performed during the light cycle. Chung model: Rats were anesthetized under isoflurane (4-5% induction and 2-3% maintenance in 100% oxygen) and an incision at the L4-S2 levels was performed to expose the left L5 and L6 spinal nerves. A ligature was tied tightly around each nerve. The wound was then sutured. The rats received an injection of clamoxil and were allowed to recover. Sham controls were subjected to the same surgical procedure except that the nerves were not ligated. […] Multi-day Study for Neuropathic Pain Efficacy: A 3-day efficacy study was undertaken wherein the animals (n=3-4/group for shams and 5/group for Chung animals) were administered 10 mg/kg ibudilast or 35% PEG/saline vehicle twice daily and mechanical allodynia was monitored at various time intervals post-dosing. […] A pre-dose reading was acquired each day in order to assess durability of efficacy.

[7] = humans, cited from earlier work
[8] = Dose selection study: rat tolerability to intraperitoneal ibudilast; type: in vivo
Text: Dose Selection Study: Preliminary studies were designed to assess rat tolerability to single and multiple intraperitoneal administrations of ibudilast. […] These included extended head, increased respiratory rate, occasional circling behavior and vocalization, and lethargy.

CC(C)C(=O)c1c(C(C)C)nn2ccccc12 [Ibudilast, 3-isobutyryl-2-isopropylpyrazolo[1,5-a]pyridine]
prevention of taxol-induced neuropathy development ([1]; 7.5 mg/kg i.p. BID initiated on day 12): prevented the further neuropathy development | time to return to allodynic state after discontinuation ([1]; 7.5 mg/kg i.p. twice daily): ≤ 1 days | magnitude of allodynia, treatment of established taxol neuropathy ([1]; 7.5 mg/kg i.p. twice daily for 7 days, measured prior to morning dose): attenuated the magnitude of allodynia; also recorded: statistically significantly different from vehicle control | tissue distribution ([2]; 5 mg/kg i.p.): well distributed to peripheral (e.g. muscle) and central (e.g. brain and spinal cord) tissues | half-life ([2]; male, Sprague-Dawley, rat, ip, 5 mg/kg i.p., plasma, muscle, brain, spinal cord, read-out: elimination half-life in all tissue compartments): 1.67 to 2.32 h | Cmax ([2]; male, Sprague-Dawley, rat, plasma and CNS tissues (brain, spinal cord), ip, ~5 mg/kg i.p., 15% ethanol/saline, read-out: maximal concentration (Cmax) in plasma and CNS tissues): ~1000 ng/mL | days of treatment after which attenuation became durable (pm dosing to next day's pre-am test) ([3]; 21 mg/kg p.o. twice daily): 2 days | earliest time of attenuation of allodynia after the first dose ([3]; 21 mg/kg p.o. twice daily): 4 h | attenuation of allodynia, oral twice daily ([3]; 21 mg/kg p.o. twice daily 2 days then 25.5 mg/kg 3 days, 35% PEG/saline): Attenuation of allodynia was observed | days of dosing to durable efficacy lasting overnight ([3]; 50 mg/kg oral gavage once daily): ≤ 7 days | magnitude of allodynia, oral once daily ([3]; 50 mg/kg oral gavage once daily, 10% HCO-60, 10% PEG400 in saline, following 2 days of dosing, shortly after morning dose): significantly attenuated the magnitude of allodynia | magnitude of allodynia (50% withdrawal threshold), multi-day study ([3]; 2.5, 7.5 or 10 mg/kg i.p. twice daily, 1 week, significant at +2 hr post-administration): attenuated the magnitude of allodynia | time after treatment at which reversal of neuropathic pain was still evident ([3]; doses >2.5 mg/kg i.p. bid, within two days of regimen): 16 h | paw withdrawal thresholds in ibudilast sham animals ([3]; sham-operated rats, single i.p. 10-15 mg/kg): no changes in paw withdrawal thresholds | time at which reduction in allodynia was apparent ([3]; single i.p. 10-15 mg/kg): 1 h | time of maximum reduction in allodynia ([3]; single i.p. 10-15 mg/kg): 2 h | time of return to baseline ([3]; single i.p. 10-15 mg/kg): 16 h | acute reduction in allodynia relative to CCI vehicle animals ([3]; single i.p. administration of 10-15 mg/kg, measured 1, 2, 4, 16 hr post-administration): showed a reduction in allodynia | production of IL-10, NGF, GDNF and NT-4 (activated microglia): enhance | production of nitric oxide (NO), reactive oxygen species, IL-1β, IL-6 and TNF (activated microglia): suppress | blood-brain barrier crossing [4]: crosses the blood-brain barrier | glial cell activation as measured by GFAP staining [5]: Reduced glial cell activation | Cmax (in vivo): ≥ 125 ng/mL | Cmax (in vivo; ip, 2.5 mg/kg): 125 ng/mL | Cmax (in vivo; ip, 7.5 mg/kg): 1710 ng/mL | Cmax (in vivo; po, 21 mg/kg): 325 ng/mL | Cmax (in vivo; po, 50 mg/kg): 387 ng/mL | time after treatment at which reversal of neuropathic pain was still evident (pre-dose reading) ([6]; 10 mg/kg i.p. b.i.d., within two days of regimen): 16 h | magnitude of allodynia (50% withdrawal threshold) ([6]; 10 mg/kg i.p. twice daily, 3 days): attenuated the magnitude of allodynia | multi-dose steady state Cmax ([7]; 10 mg BID or TID, Cai-Li et al. 2003): 45 ng/mL | single dose Cmax ([7]; 10 mg, Ketas Package Insert): 25 ng/mL | duration of adverse behavioral effects ([8]; i.p. doses >20 mg/kg in 35% PEG/saline): up to 1 hr | adverse behavioral effects ([8]; i.p. doses >20 mg/kg in 35% PEG/saline, volume </=5 ml/kg): produced adverse behavioral effects | tolerability ([8]; rat, in vivo, ip, 15 mg/kg): generally well tolerated

CN1CC[C@]23c4c5ccc(O)c4O[C@H]2[C@@H](O)C=C[C@H]3[C@H]1C5 [morphine]
reversal of allodynia in comparison to vehicle control, combination study ([3]; 7.5 mg/kg ibudilast ip bid alone or with 1 mg/kg morphine s.c., several days): greater than that by ibudilast
